Measurements: patent publication US12157717B2, “Compounds for the treatment of bovine or swine respiratory disease” (Intervet Inc., priority 2018, dated 2024)
Converted amounts (≈) assume the structure as drawn.

Legend:
Assay type in all cases: cell-based
[1] = system: Mannheimia haemolytica MH 13093 (XB0472-6014.1); assay: MIC, broth-microdilution (CLSI), strain MH 13093; conditions: Mannheimia haemolytica XB0472-6014.1, BRD field isolate
Experimental: (§1) The Minimum inhibitory concentrations (MIC) of compounds according to the invention for a number of veterinary bacterial pathogens were determined by the broth-microdilution method according to CLSI document VETO 1-A4.
(§2) Microdilution trays containing a doubling dilution series of the test compound were used for the tests. The MIC results were interpreted according to the CLSI documents VET01-S3. The lowest concentration of compound at which no visible growth (i.e. no turbidity) detected by the unaided eye was recorded as the MIC.

[2] = system: Pasteurella multocida PM 10775 (080130003051); assay: MIC, broth-microdilution (CLSI), strain PM 10775; conditions: Pasteurella multocida 080130003051, BRD field isolate
Experimental: as §1, §2

[3] = system: Mannheimia haemolytica MH 6374 (ATCC 33396); assay: MIC, broth-microdilution (CLSI), strain MH 6374; conditions: Mannheimia haemolytica ATCC 33396, reference strain
Experimental: as §1, §2

[4] = system: Mannheimia haemolytica MH 13065 (XB0446-6003.9); assay: MIC, broth-microdilution (CLSI), strain MH 13065; conditions: Mannheimia haemolytica XB0446-6003.9, BRD field isolate
Experimental: as §1, §2

[5] = system: Mannheimia haemolytica MH 6357 (M7/2); assay: MIC, broth-microdilution (CLSI), strain MH 6357; conditions: Mannheimia haemolytica M7/2, reference strain (cattle infection strain)
Experimental: as §1, §2

[6] = system: Pasteurella multocida PM 6267 (P 2225 (L386)); assay: MIC, broth-microdilution (CLSI), strain PM 6267; conditions: Pasteurella multocida P 2225 (L386), reference strain (mouse infection strain)
Experimental: as §1, §2

[7] = system: Mannheimia haemolytica MH 10720 (154); assay: MIC, broth-microdilution (CLSI), strain MH 10720; conditions: Mannheimia haemolytica 154, BRD field isolate
Experimental: as §1, §2

[8] = system: Mannheimia haemolytica MH 12587 (1071), macrolide-resistance: erm+, E+; assay: MIC, broth-microdilution (CLSI), strain MH 12587; conditions: Mannheimia haemolytica 1071, BRD field isolate
Experimental: as §1, §2

[9] = system: Pasteurella multocida PM 12080 (IV102277-0093); assay: MIC, broth-microdilution (CLSI), strain PM 12080; conditions: Pasteurella multocida IV102277-0093, BRD field isolate
Experimental: as §1, §2

[10] = system: Pasteurella multocida PM 6391 (ATCC 43137); assay: MIC, broth-microdilution (CLSI), strain PM 6391; conditions: Pasteurella multocida ATCC 43137, reference strain
Experimental: as §1, §2

| SMILES | MIC MH 13093 [1] [µM] | MIC PM 10775 [2] [µM] | MIC MH 6374 [3] [µM] | MIC MH 13065 [4] [µM] | MIC MH 6357 [5] [µM] | MIC PM 6267 [6] [µM] | MIC MH 10720 [7] [µM] | MIC MH 12587 [8] [µM] | MIC PM 12080 [9] [µM] | MIC PM 6391 [10] [µM] |
| --- | --- | --- | --- | --- | --- | --- | --- | --- | --- | --- |
| CNC(=O)C(C(=O)NO)N(C)C(=O)c1ccc(C#Cc2ccc(CNCCOC)cc2)cc1 (stereo not shown) [Compound 21] | 12.5 (≈ 5.66 µg/mL) | 0.4 (≈ 0.181 µg/mL) | 6.3 (≈ 2.85 µg/mL) | 3.1 (≈ 1.4 µg/mL) | 3.1 (≈ 1.4 µg/mL) | 1.6 (≈ 0.724 µg/mL) | 1.6 (≈ 0.724 µg/mL) | 12.5 (≈ 5.66 µg/mL) | 1.6 (≈ 0.724 µg/mL) | 3.1 (≈ 1.4 µg/mL) |
| CNC(=O)C(C(=O)NO)N(C)C(=O)c1ccc(C#Cc2ccc(CN3CCOCC3)cc2)cc1 (stereo not shown) [Compound 22] | 3.1 (≈ 1.44 µg/mL) | ≤0.1 | 1.6 (≈ 0.743 µg/mL) | 3.1 (≈ 1.44 µg/mL) | 1.6 (≈ 0.743 µg/mL) | ≤0.1 | 0.4 (≈ 0.186 µg/mL) | 6.3 (≈ 2.93 µg/mL) | 0.4 (≈ 0.186 µg/mL) | 0.4 (≈ 0.186 µg/mL) |
| CNC(=O)C(C(=O)NO)N(C)C(=O)c1ccc(C#Cc2ccc(CNCc3ccccc3)cc2)cc1 (stereo not shown) [Compound 23] | 1.6 (≈ 0.775 µg/mL) | ≤0.1 | 0.8 (≈ 0.388 µg/mL) | 1.6 (≈ 0.775 µg/mL) | 1.6 (≈ 0.775 µg/mL) | 0.4 (≈ 0.194 µg/mL) | 0.4 (≈ 0.194 µg/mL) | 3.1 (≈ 1.5 µg/mL) | 0.8 (≈ 0.388 µg/mL) | 1.6 (≈ 0.775 µg/mL) |
| CNC(=O)C(C(=O)NO)N(C)C(=O)c1ccc(C#Cc2ccc(CNCc3ccc(OC)cc3)cc2)cc1 (stereo not shown) [Compound 24] | 6.3 (≈ 3.24 µg/mL) | ≤0.1 | 1.6 (≈ 0.823 µg/mL) | 3.1 (≈ 1.6 µg/mL) | 1.6 (≈ 0.823 µg/mL) | 0.4 (≈ 0.206 µg/mL) | 0.8 (≈ 0.412 µg/mL) | 12.5 (≈ 6.43 µg/mL) | 1.6 (≈ 0.823 µg/mL) | 1.6 (≈ 0.823 µg/mL) |
| CNC(=O)C(C(=O)NO)N(C)C(=O)c1ccc(C#Cc2ccc(CN3CCCC3)cc2)cc1 (stereo not shown) [Compound 25] | 12.5 (≈ 5.61 µg/mL) | 0.4 (≈ 0.179 µg/mL) | 6.3 (≈ 2.83 µg/mL) | 6.3 (≈ 2.83 µg/mL) | 6.3 (≈ 2.83 µg/mL) | 1.6 (≈ 0.718 µg/mL) | 3.1 (≈ 1.39 µg/mL) | 12.5 (≈ 5.61 µg/mL) | 1.6 (≈ 0.718 µg/mL) | 3.1 (≈ 1.39 µg/mL) |
| CNC(=O)C(C(=O)NO)N(C)C(=O)c1ccc(C#Cc2ccc(CNC3CCCC3)cc2)cc1 (stereo not shown) [Compound 26] | 25 (≈ 11.6 µg/mL) | 0.4 (≈ 0.185 µg/mL) | 12.5 (≈ 5.78 µg/mL) | 12.5 (≈ 5.78 µg/mL) | 6.3 (≈ 2.91 µg/mL) | 0.8 (≈ 0.37 µg/mL) | 3.1 (≈ 1.43 µg/mL) | 25 (≈ 11.6 µg/mL) | 1.6 (≈ 0.74 µg/mL) | 1.6 (≈ 0.74 µg/mL) |
| CCCNCc1ccc(C#Cc2ccc(C(=O)N(C)C(C(=O)NC)C(=O)NO)cc2)cc1 (stereo not shown) [Compound 27] | 12.5 (≈ 5.46 µg/mL) | 0.4 (≈ 0.175 µg/mL) | 6.3 (≈ 2.75 µg/mL) | 6.3 (≈ 2.75 µg/mL) | 6.3 (≈ 2.75 µg/mL) | 0.2 (≈ 0.0873 µg/mL) | 1.6 (≈ 0.698 µg/mL) | 12.5 (≈ 5.46 µg/mL) | 1.6 (≈ 0.698 µg/mL) | 3.1 (≈ 1.35 µg/mL) |
| CNC(=O)C(C(=O)NO)N(C)C(=O)c1ccc(C#Cc2ccc(CNCc3ccccn3)cc2)cc1 (stereo not shown) [Compound 28] | 6.3 (≈ 3.06 µg/mL) | 0.2 (≈ 0.0971 µg/mL) | 3.1 (≈ 1.51 µg/mL) | 3.1 (≈ 1.51 µg/mL) | 6.3 (≈ 3.06 µg/mL) | ≤0.1 | 1.6 (≈ 0.777 µg/mL) | 12.5 (≈ 6.07 µg/mL) | 1.6 (≈ 0.777 µg/mL) | 3.1 (≈ 1.51 µg/mL) |
| CNC(=O)C(C(=O)NO)N(C)C(=O)c1ccc(C#Cc2ccc(CNCc3nccs3)cc2)cc1 (stereo not shown) [Compound 29] | 12.5 (≈ 6.14 µg/mL) | 0.2 (≈ 0.0983 µg/mL) | 3.1 (≈ 1.52 µg/mL) | 6.3 (≈ 3.1 µg/mL) | 6.3 (≈ 3.1 µg/mL) | 0.8 (≈ 0.393 µg/mL) | 1.6 (≈ 0.787 µg/mL) | 12.5 (≈ 6.14 µg/mL) | 1.6 (≈ 0.787 µg/mL) | 3.1 (≈ 1.52 µg/mL) |
| C#CCNCc1ccc(C#Cc2ccc(C(=O)N(C)C(C(=O)NC)C(=O)NO)cc2)cc1 (stereo not shown) [Compound 30] | 1.6 (≈ 0.692 µg/mL) | ≤0.1 | 0.8 (≈ 0.346 µg/mL) | 1.6 (≈ 0.692 µg/mL) | 0.8 (≈ 0.346 µg/mL) | 0.4 (≈ 0.173 µg/mL) | 0.4 (≈ 0.173 µg/mL) | 3.1 (≈ 1.34 µg/mL) | 0.8 (≈ 0.346 µg/mL) | 1.6 (≈ 0.692 µg/mL) |
